Columns and labels:
[1] = tested on: ALOMY; experiment: Post-emergence herbicidal action against ALOMY; assay type: in vivo, Alopecurus myosuroides; conditions: dosage 20 g/ha, visual assessment about 3 weeks after treatment vs untreated controls
Method in brief: (§1)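 Sandy loam, greenhouse; treatment 2–3 weeks after sowing, one-leaf stage. Aqueous suspension or emulsion from WP/EC sprayed on foliage (600–800 l/ha, 0.2% wetting agent). Readout: visual % action, ~3 weeks.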

[2] = tested on: ALOMY; experiment: Pre-emergence herbicidal action against ALOMY; assay type: in vivo, Alopecurus myosuroides
Method in brief: (§2)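 Seeds sown in sandy loam, soil-covered; compound sprayed on soil surface pre-emergence. Application: WP/EC, 600–800 l/ha, 0.2% wetting agent. Readout: visual % damage at 3 weeks.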

[3] = tested on: ABUTH; experiment: Pre-emergence herbicidal action against ABUTH; assay type: in vivo, Abutilon theophrasti
Method in brief: as §2

[4] = tested on: VIOTR; experiment: Pre-emergence herbicidal action against VIOTR; assay type: in vivo, Viola tricolor
Method in brief: as §2

[5] = tested on: VERPE; experiment: Post-emergence herbicidal action against VERPE; assay type: in vivo, Veronica persica; conditions: 20 g/ha
Method in brief: as §1

[6] = tested on: ECHCG; experiment: Post-emergence herbicidal action against ECHCG; assay type: in vivo, Echinochloa crus-galli
Method in brief: as §1

[7] = tested on: SETVI; experiment: Pre-emergence herbicidal action against SETVI; assay type: in vivo, Setaria viridis; conditions: dosage 80 g/ha
Method in brief: as §2

[8] = tested on: LOLRI; experiment: Pre-emergence herbicidal action against LOLRI; assay type: in vivo, Lolium rigidum; conditions: 80 g/ha
Text: Seeds of monocotyledonous and dicotyledonous weed plants and crop plants are laid out in sandy loam soil in wood-fiber pots and covered with soil. The compounds of the invention, formulated in the form of wettable powders (WP) or as emulsion concentrates (EC), are then applied to the surface of the covering soil in the form of an aqueous suspension or emulsion at a water application rate equivalent to 600 to 800 l/ha, with addition of 0.2% wetting agent. After the treatment, the pots are placed in a greenhouse and kept under good growth conditions for the trial plants. The damage to the test plants is scored visually after a test period of 3 weeks by comparison with untreated controls (herbicidal activity in percent (%): 100% activity=the plants have died, 0% activity=like control plants). […] The tables below illustrate, in an illustrative manner, the post-emergence herbicidal action of the compounds of the invention, the herbicidal activity being stated in percent.

[9] = tested on: AMARE; experiment: Post-emergence herbicidal action against AMARE; assay type: in vivo, Amaranthus retroflexus; conditions: 20 g/ha, visual assessment about 3 weeks after treatment, 100% = plants have died, 0% = like control plants
Method in brief: as §1

[10] = tested on: DIGSA; experiment: Pre-emergence herbicidal action against DIGSA; assay type: in vivo, Digitaria sanguinalis
Method in brief: as §2

[11] = tested on: ECHCG; experiment: Pre-emergence herbicidal action against ECHCG; assay type: in vivo, Echinochloa crus-galli; conditions: 80 g/ha
Method in brief: as §2

[12] = tested on: SETVI; experiment: Post-emergence herbicidal action against SETVI; assay type: in vivo, Setaria viridis
Method in brief: as §1

[13] = tested on: MATIN; experiment: Pre-emergence herbicidal action against MATIN; assay type: in vivo, Matricaria inodora
Method in brief: as §2

[14] = tested on: ABUTH; experiment: Post-emergence herbicidal action against ABUTH; assay type: in vivo, Abutilon theophrasti; conditions: visual assessment about 3 weeks after treatment vs untreated controls
Method in brief: as §1

[15] = tested on: DIGSA; experiment: Post-emergence herbicidal action against DIGSA; assay type: in vivo, Digitaria sanguinalis
Method in brief: as §1

[16] = tested on: AMARE; experiment: Pre-emergence herbicidal action against AMARE; assay type: in vivo, Amaranthus retroflexus
Method in brief: as §2

[17] = tested on: PHBPU; experiment: Post-emergence herbicidal action against PHBPU; assay type: in vivo, Pharbitis purpurea
Method in brief: as §1

[18] = tested on: VERPE; experiment: Pre-emergence herbicidal action against VERPE; assay type: in vivo, Veronica persica; conditions: dosage 80 g/ha
Method in brief: as §2

[19] = tested on: AVEFA; experiment: Pre-emergence herbicidal action against AVEFA; assay type: in vivo, Avena fatua; conditions: Avena fatua, 504 h; 80 g/ha, pre-emergence
Method in brief: as §2

[20] = tested on: VIOTR; experiment: Post-emergence herbicidal action against VIOTR; assay type: in vivo, Viola tricolor; conditions: Viola tricolor, 504 h
Method in brief: as §1

[21] = tested on: MATIN; experiment: Post-emergence herbicidal action against MATIN; assay type: in vivo, Matricaria inodora; conditions: Tripleurospermum inodorum, 504 h
Method in brief: as §1

[22] = 80 g/ha, scored visually after 3 weeks vs untreated controls (100% = plants have died, 0% = like control plants)

## COCCNC(=O)c1c(C(F)(F)F)ccc(C(=O)Nc2nnnn2C)c1C [Example 1-34]
[1]
  Post-emergence action against ALOMY in %: 90%
[2]; 20 g/ha, scored visually after 3 weeks, 100% = plants have died, 0% = like control plants
  Pre-emergence action against ALOMY: 80%
[2]; 80 g/ha, pre-emergence, scored visually after 3 weeks vs untreated controls (100% = plants have died, 0% = like control plants)
  Pre-emergence action against ALOMY (herbicidal activity): 100%
[3]; [22]
  Pre-emergence action against ABUTH (herbicidal activity): 100%
[3]; dosage 20 g/ha, scored visually after 3 weeks vs untreated controls, 100% = plants have died, 0% = like control plants
  Pre-emergence action against ABUTH (herbicidal activity in percent): 80%
[4]; dosage 20 g/ha
  Pre-emergence action against VIOTR in %: 100%
[4]; dosage 80 g/ha
  Pre-emergence action against VIOTR in %: 100%
[5]
  Post-emergence action against VERPE in %: 90%
[6]; dosage 5 g/ha
  Post-emergence action against ECHCG in %: 90%
[6]; dosage 20 g/ha
  Post-emergence action against ECHCG in %: 90%
[7]
  Pre-emergence action against SETVI in %: 100%
[8]
  Pre-emergence action against LOLRI in %: 80%
[9]
  Post-emergence action at 20 g/ha against AMARE in %: 100%
[10]; dosage 20 g/ha
  Pre-emergence action against DIGSA in %: 100%
[10]; dosage 80 g/ha
  Pre-emergence action against DIGSA in %: 100%
[11]
  Pre-emergence action against ECHCG in %: 90%
[12]; dosage 5 g/ha
  Post-emergence action against SETVI in %: 80%
[12]; dosage 20 g/ha
  Post-emergence action against SETVI in %: 90%
[13]; dosage 80 g/ha
  Pre-emergence action against MATIN in %: 90%
[14]; dosage 5 g/ha
  Post-emergence action against ABUTH in %: 90%
[14]; dosage 20 g/ha
  Post-emergence action against ABUTH in %: 100%
[15]; 5 g/ha
  Post-emergence action against DIGSA in %: 80%
[15]; 20 g/ha
  Post-emergence action against DIGSA: 90%
[16]; 20 g/ha, scored visually after 3 weeks vs untreated controls, 100% = plants have died, 0% = like control plants
  Pre-emergence action against AMARE in %: 100%
[16]; [22]
  Pre-emergence action against AMARE in %: 100%
[17]; dosage 5 g/ha
  Post-emergence action against PHBPU in %: 90%
[17]; dosage 20 g/ha
  Post-emergence action against PHBPU in %: 90%
[18]
  Pre-emergence action against VERPE in %: 100%

## CSc1c(C(=O)Nc2nnnn2C)ccc(C(F)(F)F)c1C(=O)NC1CC1 [Example 1-83]
[19]
  pest or weed control at 80 g/ha: 80%
[1]; Alopecurus myosuroides, 504 h
  pest or weed control at 20 g/ha: 100%
[2]; Alopecurus myosuroides, 504 h, 80 g/ha, pre-emergence, scored visually after 3 weeks vs untreated controls (100% = plants have died, 0% = like control plants)
  pest or weed control at 80 g/ha: 100%
[2]; Alopecurus myosuroides, pre-emergence, 504 h, 20 g/ha, scored visually after 3 weeks, 100% = plants have died, 0% = like control plants
  pest or weed control at 20 g/ha: 80%
[3]; Abutilon theophrasti, 504 h, 80 g/ha, scored visually after 3 weeks vs untreated controls (100% = plants have died, 0% = like control plants)
  pest or weed control at 80 g/ha: 100%
[3]; Abutilon theophrasti, 504 h, dosage 20 g/ha, scored visually after 3 weeks vs untreated controls, 100% = plants have died, 0% = like control plants, read-out: Pre-emergence action against ABUTH (herbicidal activity in percent)
  pest or weed control at 20 g/ha: 100%
[4]; Viola tricolor, 504 h, dosage 20 g/ha
  pest or weed control at 20 g/ha: 90%
[4]; Viola tricolor, 504 h, dosage 80 g/ha
  pest or weed control at 80 g/ha: 100%
[5]; Veronica persica, 504 h
  pest or weed control at 20 g/ha: 90%
[6]; Echinochloa crus-galli, 504 h, dosage 20 g/ha
  pest or weed control at 20 g/ha: 90%
[7]; Setaria viridis, 504 h
  pest or weed control at 80 g/ha: 100%
[8]; Lolium rigidum, 504 h
  pest or weed control at 80 g/ha: 80%
[9]; Amaranthus retroflexus, 504 h
  pest or weed control at 20 g/ha: 100%
[20]; 5 g/ha
  pest or weed control at 5 g/ha: 90%
[20]; 20 g/ha
  pest or weed control at 20 g/ha: 90%
[11]; Echinochloa crus-galli, 504 h
  pest or weed control at 80 g/ha: 90%
[12]; Setaria viridis, 504 h, dosage 5 g/ha
  pest or weed control at 5 g/ha: 80%
[12]; Setaria viridis, 504 h, dosage 20 g/ha
  pest or weed control at 20 g/ha: 100%
[13]; Tripleurospermum inodorum, 504 h, dosage 20 g/ha
  pest or weed control at 20 g/ha: 90%
[13]; Tripleurospermum inodorum, 504 h, dosage 80 g/ha
  pest or weed control at 80 g/ha: 100%
[21]; dosage 5 g/ha
  pest or weed control at 5 g/ha: 80%
[21]; dosage 20 g/ha
  pest or weed control at 20 g/ha: 90%
[14]; Abutilon theophrasti, 504 h, dosage 5 g/ha
  pest or weed control at 5 g/ha: 90%
[14]; Abutilon theophrasti, 504 h, dosage 20 g/ha
  pest or weed control at 20 g/ha: 90%
[16]; Amaranthus retroflexus, 504 h, 80 g/ha, scored visually after 3 weeks vs untreated controls, 100% = plants have died, 0% = like control plants
  pest or weed control at 80 g/ha: 100%
[17]; Ipomoea purpurea, 504 h, dosage 20 g/ha
  pest or weed control at 20 g/ha: 90%
[18]; Veronica persica, 504 h
  pest or weed control at 80 g/ha: 80%

Source: patent US12655116B2, “Substituted isophthalic acid diamides” (Bayer Aktiengesellschaft, priority 2020, dated 2026)
